Values joined by “and” are separate entries in the source; they are usually repeats but may differ in a detail not shown here. Identical values can stand only once.
How the values were obtained:
[1] = target: T1, Adenosine A2A receptor (Homo sapiens, UniProt P29274); assay: Adenosine A2A receptor competitive binding assay (Tag-lite HTRF); conditions: Tag-lite adenosine A2A receptor ligand binding, 2 h room temperature; values separated by / are repeat determinations
Summary of the method: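 Compound displacement of a red fluorescent antagonist tracer (added at 60 nM stock) from donor-labelled, pre-transfected human A2A cells was read by HTRF after 2 h at room temperature; compound dilutions contained 0.6% DMSO.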

[2] = target: T1, Adenosine A2A receptor; assay: cAMP assay in 293A cells stably expressing the adenosine A2A receptor (CGS21680 stimulation, HTRF); type: cell-based; set-up: expressed in transfected cells; host or cells: 293A cells (Invitrogen, Cat# R705-07) infected with A2A-expressing lentivirus (custom packaged by Biosettia), puromycin selected; conditions: 293A-A2AR cells, 0.1% BSA, values separated by / are repeat determinations
[3] = 1 uM CGS, read-out: cAMP (nM) 0.1% BSA, 1 uM CGS
[4] = 8 nM CGS, read-out: cAMP (nM) 0.1% BSA, 8 nM CGS

T1 sequence (P29274 whole entry): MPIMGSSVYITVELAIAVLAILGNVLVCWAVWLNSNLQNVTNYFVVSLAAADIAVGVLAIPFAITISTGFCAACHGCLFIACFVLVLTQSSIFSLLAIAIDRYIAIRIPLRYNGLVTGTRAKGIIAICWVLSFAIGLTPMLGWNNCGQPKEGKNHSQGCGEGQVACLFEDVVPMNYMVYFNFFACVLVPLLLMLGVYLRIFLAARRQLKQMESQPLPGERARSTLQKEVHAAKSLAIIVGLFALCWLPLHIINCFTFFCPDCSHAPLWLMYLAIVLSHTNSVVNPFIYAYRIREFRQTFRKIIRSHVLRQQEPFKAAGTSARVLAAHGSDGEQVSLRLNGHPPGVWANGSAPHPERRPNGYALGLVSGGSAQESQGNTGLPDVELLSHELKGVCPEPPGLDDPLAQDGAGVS

Row | SMILES | IC50 [1] | IC50 [2, 3] | IC50 [2, 4]
1 | Cc1cc(-c2c(OCCC(C)(C)C(=O)O)nc(N)nc2-c2ccc(F)cc2)cc(C(F)F)n1 [Example 70, 4-((2-amino-5-(2-(difluoromethyl)-6-methylpyridin-4-yl)-6-(4-fluorophenyl)pyrimidin-4-yl)oxy)-2,2-dimethylbutanoic acid] | 3.6 nM and 1 nM and 4 nM | 513 nM and 315 nM and 231 nM and 229 nM and 143 nM | –
2 | Cc1cc(-c2c(O[C@H](C)CO)nc(N)nc2-c2ccc(F)cc2)cc(C(F)F)n1 [Example 73, (R)-2-((2-amino-5-(2-(difluoromethyl)-6-methylpyridin-4-yl)-6-(4-fluorophenyl)pyrimidin-4-yl)oxy)propan-1-ol] | 25 nM | – | 3.6 nM
3 | Cc1cc(-c2c(CNC(=O)N(C)C)nc(N)nc2-c2ccc(F)cc2)cc(C(F)F)n1 [Example 78, 3-((2-amino-5-(2-(difluoromethyl)-6-methylpyridin-4-yl)-6-(4-fluorophenyl)pyrimidin-4-yl)methyl)-1,1-dimethylurea] | 11 nM | – | 51 nM
4 | Cc1cc(-c2c(OCCCN3CCOCC3)nc(N)nc2-c2ccc(F)cc2)cc(C(F)F)n1 [Example 80, 5-(2-(difluoromethyl)-6-methylpyridin-4-yl)-4-(4-fluorophenyl)-6-(3-morpholinopropoxy)pyrimidin-2-amine] | 42 nM | – | 6.4 nM
5 | Cc1cc(-c2c(OCC(O)CCO)nc(N)nc2-c2ccc(F)cc2)cc(C(F)F)n1 (stereo not drawn) [Example 81, 4-((2-amino-5-(2-(difluoromethyl)-6-methylpyridin-4-yl)-6-(4-fluorophenyl)pyrimidin-4-yl)oxy)butane-1,3-diol] | 5.6 nM | – | 21 nM and 5.9 nM and 8.4 nM
6 | Cc1cc(-c2c(OCCNc3ccccc3)nc(N)nc2-c2ccc(F)cc2)cc(C(F)F)n1 [Example 82, 5-(2-(difluoromethyl)-6-methylpyridin-4-yl)-4-(4-fluorophenyl)-6-(2-(phenylamino)ethoxy)pyrimidin-2-amine] | 16 nM | 936 nM | 1.6 nM
7 | Cc1cc(-c2c(OCC(=O)NCc3ccccc3)nc(N)nc2-c2ccc(F)cc2)cc(C(F)F)n1 [Example 84] | 17 nM | – | 8.7 nM
8 | Cc1cc(-c2c(OCCN(C)c3ccccc3)nc(N)nc2-c2ccc(F)cc2)cc(C(F)F)n1 [Example 87, 5-(2-(difluoromethyl)-6-methylpyridin-4-yl)-4-(4-fluorophenyl)-6-(2-(methyl(phenyl)amino)ethoxy)pyrimidin-2-amine] | 18 nM | – | 2.2 nM
9 | Cc1cc(-c2c(OCC(=O)N(CCO)CCO)nc(N)nc2-c2ccc(F)cc2)cc(C(F)F)n1 [Example 88] | 22 nM | 4260 nM | 8.3 nM
10 | CCN(CCO)C(=O)COc1nc(N)nc(-c2ccc(F)cc2)c1-c1cc(C)nc(C(F)F)c1 [Example 89, 2-((2-amino-5-(2-(difluoromethyl)-6-methylpyridin-4-yl)-6-(4-fluorophenyl)pyrimidin-4-yl)oxy)-N-ethyl-N-(2-hydroxyethyl)acetamide] | 6.1 nM | – | 2.2 nM
11 | CCN(C(=O)COc1nc(N)nc(-c2ccc(F)cc2)c1-c1cc(C)nc(C(F)F)c1)c1ccccc1 [Example 90] | 23 nM | – | 6.8 nM
12 | Cc1cc(-c2c(OCC(=O)Nc3ccccc3)nc(N)nc2-c2ccc(F)cc2)cc(C(F)F)n1 [Example 92, 2-((2-amino-5-(2-(difluoromethyl)-6-methylpyridin-4-yl)-6-(4-fluorophenyl)pyrimidin-4-yl)oxy)-N-phenylacetamide] | 48 nM | – | 6.4 nM
13 | Cc1cc(-c2c(OCCNc3ccccn3)nc(N)nc2-c2ccc(F)cc2)cc(C(F)F)n1 [Example 94, 5-(2-(difluoromethyl)-6-methylpyridin-4-yl)-4-(4-fluorophenyl)-6-(2-(pyridin-2-ylamino)ethoxy)pyrimidin-2-amine] | 2.4 nM | – | 0.39 nM and 2.9 nM
14 | Cc1cc(-c2c(OCc3nc(C)n[nH]3)nc(N)nc2-c2ccc(F)cc2)cc(C(F)F)n1 [Example 97, 5-(2-(difluoromethyl)-6-methylpyridin-4-yl)-4-(4-fluorophenyl)-6-((3-methyl-1H-1,2,4-triazol-5-yl)methoxy)pyrimidin-2-amine] | 14 nM | 3310 nM | 4.5 nM
15 | Cc1cc(-c2c(OCC(=O)N(C)c3ccccc3)nc(N)nc2-c2ccc(F)cc2)cc(C(F)F)n1 [Example 98, 2-((2-amino-5-(2-(difluoromethyl)-6-methylpyridin-4-yl)-6-(4-fluorophenyl)pyrimidin-4-yl)oxy)-N-methyl-N-phenylacetamide] | 5.9 nM | – | 1.2 nM
16 | Cc1cc(-c2c(OCC3(F)CCOCC3)nc(N)nc2-c2ccc(F)cc2)cc(C(F)F)n1 [Example 102, 5-(2-(difluoromethyl)-6-methylpyridin-4-yl)-4-(4-fluorophenyl)-6-((4-fluorotetrahydro-2H-pyran-4-yl)methoxy)pyrimidin-2-amine] | 0.83 nM | 10 nM | –
17 | COC(=O)NCc1nc(N)nc(-c2ccc(F)cc2)c1-c1cc(C)nc(C(F)F)c1 [Example 103, methyl((2-amino-5-(2-(difluoromethyl)-6-methylpyridin-4-yl)-6-(4-fluorophenyl)pyrimidin-4-yl)methyl)carbamate] | 47 nM | – | 11 nM
18 | CCn1ccnc1COc1nc(N)nc(-c2ccc(F)cc2)c1-c1cc(C)nc(C(F)F)c1 [Example 105, 5-(2-(difluoromethyl)-6-methylpyridin-4-yl)-4-((1-ethyl-1H-imidazol-2-yl)methoxy)-6-(4-fluorophenyl)pyrimidin-2-amine] | 0.17 nM and 1 nM | 10 nM | 0.44 nM and 0.38 nM
19 | Cc1cc(-c2c(OCCNS(N)(=O)=O)nc(N)nc2-c2ccccc2)cc(C(F)(F)F)n1 [Example 112] | 6.7 nM | – | 3.1 nM
20 | CNS(=O)(=O)NCCOc1nc(N)nc(-c2ccc(F)cc2)c1-c1cc(C)nc(C(F)F)c1 [Example 115] | 19 nM | 820 nM | 9.9 nM
21 | COC(=O)NCCOc1nc(N)nc(-c2ccc(F)cc2)c1-c1cc(C)nc(C(F)F)c1 [Example 116, methyl(2-((2-amino-5-(2-(difluoromethyl)-6-methylpyridin-4-yl)-6-(4-fluorophenyl)pyrimidin-4-yl)oxy)ethyl)carbamate] | 7.3 nM | – | 4.7 nM and 3.2 nM

Second part, the compound after the results:

Row | IC50 [1] | IC50 [2, 3] | IC50 [2, 4] | SMILES
22 | > 1000 nM | – | > 1000 nM | Cc1cc(-c2c(OCC(=O)O)nc(N)nc2-c2ccc(F)cc2)cc(C(F)F)n1 [Example 71, 2-((2-amino-5-(2-(difluoromethyl)-6-methylpyridin-4-yl)-6-(4-fluorophenyl)pyrimidin-4-yl)oxy)acetic acid]
23 | 8.4 nM and 15.7 nM | 693 nM | – | Cc1cc(-c2c(OC[C@@H](C)O)nc(N)nc2-c2ccc(F)cc2)cc(C(F)F)n1 [Example 74, (R)-1-((2-amino-5-(2-(difluoromethyl)-6-methylpyridin-4-yl)-6-(4-fluorophenyl)pyrimidin-4-yl)oxy)propan-2-ol]
24 | 201 nM | – | 89 nM | Cc1cc(-c2c(OCC3CNC3)nc(N)nc2-c2ccc(F)cc2)cc(C(F)F)n1 [Example 75, 4-(azetidin-3-ylmethoxy)-5-(2-(difluoromethyl)-6-methylpyridin-4-yl)-6-(4-fluorophenyl)pyrimidin-2-amine]
25 | 19 nM | – | 3.2 nM | Cc1cc(-c2c(O[C@@H](C)CO)nc(N)nc2-c2ccc(F)cc2)cc(C(F)F)n1 [Example 76, (S)-2-((2-amino-5-(2-(difluoromethyl)-6-methylpyridin-4-yl)-6-(4-fluorophenyl)pyrimidin-4-yl)oxy)propan-1-ol]
26 | 3.9 nM and 4.2 nM | 547 nM | – | Cc1cc(-c2c(OC[C@H](C)O)nc(N)nc2-c2ccc(F)cc2)cc(C(F)F)n1 [Example 77, (S)-1-((2-amino-5-(2-(difluoromethyl)-6-methylpyridin-4-yl)-6-(4-fluorophenyl)pyrimidin-4-yl)oxy)propan-2-ol]
27 | 13 nM | 1610 nM | 2.9 nM and 7.3 nM and 22 nM | Cc1cc(-c2c(OC[C@@H](O)CO)nc(N)nc2-c2ccc(F)cc2)cc(C(F)F)n1 [Example 83, (S)-3-((2-amino-5-(2-(difluoromethyl)-6-methylpyridin-4-yl)-6-(4-fluorophenyl)pyrimidin-4-yl)oxy)propane-1,2-diol]
28 | 13 nM | 1070 nM | 2 nM and 9.1 nM and 10.5 nM | Cc1cc(-c2c(OC[C@H](O)CO)nc(N)nc2-c2ccc(F)cc2)cc(C(F)F)n1 [Example 86, (R)-3-((2-amino-5-(2-(difluoromethyl)-6-methylpyridin-4-yl)-6-(4-fluorophenyl)pyrimidin-4-yl)oxy)propane-1,2-diol]
29 | 38 nM | – | 43 nM | COC(=O)N1CCC(COc2nc(N)nc(-c3ccc(F)cc3)c2-c2cc(C)nc(C(F)F)c2)CC1 [Example 106, methyl 4-(((2-amino-5-(2-(difluoromethyl)-6-methylpyridin-4-yl)-6-(4-fluorophenyl)pyrimidin-4-yl)oxy)methyl)piperidine-1-carboxylate]
30 | 8.9 nM | – | 16 nM and 7.5 nM | CNC(=O)NCCOc1nc(N)nc(-c2ccc(F)cc2)c1-c1cc(C)nc(C(F)F)c1 [Example 113, 1-(2-((2-amino-5-(2-(difluoromethyl)-6-methylpyridin-4-yl)-6-(4-fluorophenyl)pyrimidin-4-yl)oxy)ethyl)-3-methylurea]
31 | 7.7 nM | – | 6.2 nM and 4.2 nM | Cc1cc(-c2c(OCC3COCCO3)nc(N)nc2-c2ccc(F)cc2)cc(C(F)F)n1 (stereo not drawn) [Example 114]
